Assay results taken from BindingDB's records for doi:10.1021/jm00089a021 (Tanabe Seiyaku, 1992).

biological target: Aldose reductase (Oryctolagus cuniculus); assay: Tested in vitro for inhibitory activity against partially purified aldose reductase from male rabbit lens

Compound | IC50
NN1C(=O)Nc2ccccc2C12NC(=O)NC2=O (configuration not stated) | 4000 nM
CN1C(=O)Nc2cc(Cl)c([N+](=O)[O-])cc2C12NC(=O)NC2=O (configuration not stated) | 120 nM
CN1C(=O)Nc2ccc([N+](=O)[O-])cc2C12NC(=O)NC2=O (configuration not stated) | 73 nM
COc1ccc2c(c1)NC(=O)N(C)C21NC(=O)NC1=O (configuration not stated) | 360 nM
Cc1cccc2c1C1(NC(=O)NC1=O)N(C)C(=O)N2 (configuration not stated) | 400 nM
CN1C(=O)Nc2c(cc(F)c(F)c2F)C12NC(=O)NC2=O (configuration not stated) | 140 nM
CN1C(=O)Nc2ccccc2C12NC(=S)NC2=O (configuration not stated) | > 10000 nM
Cc1cc2c(cc1Cl)C1(NC(=O)NC1=O)N(C)C(=O)N2 (configuration not stated) | 30 nM
O=C1NC(=O)C2(N1)c1ccccc1NC(=O)N2O (configuration not stated) | > 10000 nM
CN1C(=O)Nc2cc(N3CCOCC3)c([N+](=O)[O-])cc2C12NC(=O)NC2=O (configuration not stated) | 430 nM
O=C1NC(=O)C2(N1)c1ccccc1NC(=O)N2Cc1ccccc1 (configuration not stated) | > 10000 nM
CN1C(=O)Nc2ccc(Cl)cc2[C@@]12NC(=O)NC2=O | 22 nM
CN1C(=O)Nc2cc(Cl)c(Cl)cc2C12NC(=O)NC2=O (configuration not stated) | 74 nM
CN1C(=O)Nc2ccc(N)cc2C12NC(=O)NC2=O (configuration not stated) | > 10000 nM
CCCCN1C(=O)Nc2ccccc2C12NC(=O)NC2=O (configuration not stated) | > 10000 nM
CN1C(=O)NC(=O)C12c1ccccc1NC(=O)N2C (configuration not stated) | > 10000 nM

Compound | IC50
CC(C)N1C(=O)Nc2ccccc2C12NC(=O)NC2=O (configuration not stated) | > 10000 nM
CN1C(=O)Nc2ccc(O)cc2C12NC(=O)NC2=O (configuration not stated) | > 10000 nM
CN1C(=O)Nc2ccccc2C12SC(N)=NC2=O (configuration not stated) | > 10000 nM
CN1C(=O)Nc2cc(Cl)ccc2C12NC(=O)NC2=O (configuration not stated) | 94 nM
Cc1ccc2c(c1)NC(=O)N(C)C21NC(=O)NC1=O (configuration not stated) | 220 nM
CN1C(=O)Nc2ccc(Cl)cc2C12NC(=O)NC2=O (configuration not stated) | 56 nM
CCN1C(=O)Nc2ccccc2C12NC(=O)NC2=O (configuration not stated) | 1000 nM
CN1C(=O)Nc2ccc(Cl)cc2[C@]12NC(=O)NC2=O | 770 nM
O=C1NC(=O)C2(N1)NC(=O)Nc1ccccc12 (configuration not stated) | 1400 nM
CN1C(=O)NC2(C1=O)c1ccccc1NC(=O)N2C (configuration not stated) | > 10000 nM
CN1C(=O)Nc2cccc(Cl)c2C12NC(=O)NC2=O (configuration not stated) | 860 nM
CN1C(=O)N(C)C2(C1=O)c1ccccc1NC(=O)N2C (configuration not stated) | > 10000 nM
CN1C(=O)Nc2ccc(Br)cc2C12NC(=O)NC2=O (configuration not stated) | 52 nM
CN1C(=O)Nc2c([N+](=O)[O-])cc(Cl)cc2C12NC(=O)NC2=O (configuration not stated) | 46 nM
CN1C(=O)Nc2ccc(OC(=O)c3ccccc3)cc2C12NC(=O)NC2=O (configuration not stated) | 2000 nM
CN1C(=O)Nc2cc3c(cc2C12NC(=O)NC2=O)OCO3 (configuration not stated) | 1800 nM
